Data as given in patent US20190358181A1, “METHODS FOR AUTISM SPECTRUM DISORDER PHARMACOTHERAPY” (priority 2017, published 2019).

System: 610 metabolites from 63 biochemical pathways
Experiment: Targeted broad-spectrum plasma metabolomic analysis (LC-MS/MS), paired pre-infusion vs post-infusion (2-days and 6-weeks)
Assay type: in vivo, human
Conditions: for Linear Ratio / VIP Score / Z Abs / Z Score: plasma
Method: Targeted, broad-spectrum, plasma metabolomic analysis of 610 metabolites from 63 biochemical pathways was performed by high performance liquid chromatography and tandem mass spectrometry (LC-MS/MS) on the samples collected from patients in Example 1. Venous blood was collected between the hours of 8 am and 5 pm, at least 3 hours after the last meal, into lithium-heparin vacutainer tubes (BD #367884). Plasma was separated by centrifugation at 900 g×10 minutes at room temperature within one hour of collection. The resulting fresh lithium-heparin plasma was transferred to labeled 1.2 ml or 2.0 ml externally threaded cryotubes with a minimum headspace air gap for storage at −80° C. for analysis. Samples were analyzed on an AB SCIEX QTRAP 5500 triple quadrupole mass spectrometer equipped with a Turbo V electrospray ionization (ESI) source, Shimadzu LC-20A UHPLC system, and a PAL CTC autosampler. Typically, 90 μl of plasma was thawed on ice and transferred to a 1.7 ml Eppendorf tube. Five (5.0) μl of a cocktail containing 25-35 commercial stable isotope internal standards, and 5.0 μl of 57 stable isotope internal standards that were custom-synthesized in E. coli NCM3722, Caenorhabditis elegans N2, and Komagataella phaffii (ATCC 76273; formerly known as Pichia pastoris) by metabolic labeling with 13C-glucose and 13C-bicarbonate, were added, mixed, and incubated for 10 min at 20° C. to permit small molecules and vitamins in the internal standards to associate with plasma binding proteins. Macromolecules (protein, DNA, RNA, glycans, etc.) were precipitated by extraction with 4 volumes (400 μl) of cold (−20° C.), acetonitrile:methanol (50:50) (LCMS grade, Cat #LC015-2.5 and GC230-4, Burdick & Jackson, Honeywell), vortexed vigorously, and incubated on crushed ice for 10 min, then removed by centrifugation at 16,000 g×10 min at 4° C. The supernatants containing the extracted metabolites and internal standards in the resulting 40:40:20 solvent mix of acetonitrile:methanol:water were transferred to labeled cryotubes and stored at −80° C. for LCMS/MS analysis.
LC-MS/MS analysis was performed by scheduled multiple reaction monitoring (sMRM) under Analyst v1.6.2 software control in both negative and positive mode with rapid polarity switching (50 ms). Nitrogen was used for curtain gas (set to 30), collision gas (set to high), ion source gas 1 and 2 (set to 35). The source temperature was 500° C. Spray voltage was set to −4500 V in negative mode and 5500 V in positive mode. The values for Q1 and Q3 mass-to-charge ratios (m/z), declustering potential (DP), entrance potential (EP), collision energy (CE), and collision cell exit potential (CXP) were determined and optimized for each MRM for each metabolite. Ten microliters of extract was injected by PAL CTC autosampler via a 10 μl stainless steel loop into a 250 mm×2.0 mm, 4 μm polymer based NH2 HPLC column (Asahipak NH2P-40 2E, Showa Denko America, Inc., NY) held at 25° C. for chromatographic separation. The mobile phase was solvent A: 95% water with 20 mM (NH4)2CO3 (Sigma, Fluka Cat #74415-250G-F), 5% acetonitrile, and 38 mM NH4OH (Sigma, Fluka Cat #17837-100ML), final pH 9.75; solvent B: 100% acetonitrile. Separation was achieved using the following gradient: 0-3.5 min: 95% B, 3.6-8 min: 85% B, 8.1-13 min: 75% B, 13.5-35 min: 0% B, 36-46 min: 95% B, 46.1 min: end. The flow rate was 200 μl/min. Pump pressures ranged from 920-2600 psi over the course of the gradient. All the samples were kept at 4° C. during analysis. The chromatographic peaks were identified using MultiQuant (v3.0, Sciex), confirmed by manual inspection, and the peak areas integrated. […]

[1] = S-Adenosylhomocysteine, 6-weeks
[2] = SAM, SAH, Methionine, Cysteine, Glutathione, 2-days
[3] = SAM, SAH, Methionine, Cysteine, Glutathione, 6-weeks
[4] = Sphingomyelin Metabolism, 2-days
[5] = Sphingomyelin Metabolism, 6-weeks
[6] = Subtotal, all pathways, 6-weeks
[7] = Subtotals, all pathways, 2-days
[8] = Taurine, Hypotaurine Metabolism, 2-days
[9] = Tryptophan, Kynurenine, Serotonin, Melatonin, 6-weeks
[10] = Tryptophan, Kynurenine, Serotonin, 2-days
[11] = Tyrosine and Phenylalanine Metabolism, 2-days

Cc1ccc(C(=O)Nc2ccc(S(=O)(=O)O)c3cc(S(=O)(=O)O)cc(S(=O)(=O)O)c23)cc1NC(=O)c1cccc(NC(=O)Nc2cccc(C(=O)Nc3cc(C(=O)Nc4ccc(S(=O)(=O)O)c5cc(S(=O)(=O)O)cc(S(=O)(=O)O)c45)ccc3C)c2)c1 [Suramin, suramin]
Fraction of Impact (VIP Score) Explained (% of 119.7) (Purine Metabolism, 2-days): 15%
Impact (Sum VIP Score) (Purine Metabolism, 2-days): 17.6
Increased (Purine Metabolism, 2-days): 4
Observed Hits in the Top 61 Metabolites (Purine Metabolism, 2-days): 9
Decreased (Purine Metabolism, 6-weeks): 2
Fold Enrichment (Obs/Exp) (Purine Metabolism, 6-weeks): 1.7
Fraction of Impact (VIP Score) Explained (% of 94.6) (Purine Metabolism, 6-weeks): 11%
Impact (Sum VIP Score) (Purine Metabolism, 6-weeks): 10.2
Increased (Purine Metabolism, 6-weeks): 3
Observed Hits in the Top 48 Metabolites (Purine Metabolism, 6-weeks): 5
Linear Ratio (Purine, 6-weeks): 1.307
VIP Score (Purine, 6-weeks): 1.980
Z Abs (Purine, 6-weeks): 1.650
Z Score (Purine, 6-weeks): 1.650
Decreased (Pyrimidine Metabolism, 2-days): 1
Fold Enrichment (Obs/Exp) (Pyrimidine Metabolism, 2-days): 1.6
Fraction of Impact (VIP Score) Explained (% of 119.7) (Pyrimidine Metabolism, 2-days): 4%
Impact (Sum VIP Score) (Pyrimidine Metabolism, 2-days): 4.3
Increased (Pyrimidine Metabolism, 2-days): 1
Observed Hits in the Top 61 Metabolites (Pyrimidine Metabolism, 2-days): 2
Decreased (Pyrimidine Metabolism, 6-weeks): 0
Fold Enrichment (Obs/Exp) (Pyrimidine Metabolism, 6-weeks): 2.0
Fraction of Impact (VIP Score) Explained (% of 94.6) (Pyrimidine Metabolism, 6-weeks): 4%
Impact (Sum VIP Score) (Pyrimidine Metabolism, 6-weeks): 4.2
Increased (Pyrimidine Metabolism, 6-weeks): 2
Observed Hits in the Top 48 Metabolites (Pyrimidine Metabolism, 6-weeks): 2
Linear Ratio [1]: 1.417
VIP Score [1]: 1.894
Z Abs [1]: 0.971
Z Score [1]: 0.971
Decreased [2]: 1
Fold Enrichment (Obs/Exp) [2]: 1.4
Fraction of Impact (VIP Score) Explained (% of 119.7) [2]: 5%
Impact (Sum VIP Score) [2]: 5.6
Increased [2]: 2
Observed Hits in the Top 61 Metabolites [2]: 3
Decreased [3]: 0
Fold Enrichment (Obs/Exp) [3]: 3.0
Fraction of Impact (VIP Score) Explained (% of 94.6) [3]: 10%
Impact (Sum VIP Score) [3]: 9.5
Increased [3]: 5
Observed Hits in the Top 48 Metabolites [3]: 5
Linear Ratio (SM(d18:1/18:2), 6-weeks): 1.424
VIP Score (SM(d18:1/18:2), 6-weeks): 1.508
Z Abs (SM(d18:1/18:2), 6-weeks): 0.750
Z Score (SM(d18:1/18:2), 6-weeks): 0.750
Linear Ratio (SM(d18:1/26:0 OH), 6-weeks): 1.671
VIP Score (SM(d18:1/26:0 OH), 6-weeks): 2.622
Z Abs (SM(d18:1/26:0 OH), 6-weeks): 2.002
Z Score (SM(d18:1/26:0 OH), 6-weeks): 2.002
Decreased [4]: 2
Fold Enrichment (Obs/Exp) [4]: 0.4
Fraction of Impact (VIP Score) Explained (% of 119.7) [4]: 3%
Impact (Sum VIP Score) [4]: 3.6
Increased [4]: 0
Observed Hits in the Top 61 Metabolites [4]: 2
Decreased [5]: 0
Fold Enrichment (Obs/Exp) [5]: 0.5
Fraction of Impact (VIP Score) Explained (% of 94.6) [5]: 4%
Impact (Sum VIP Score) [5]: 4.1
Increased [5]: 2
Observed Hits in the Top 48 Metabolites [5]: 2
Decreased [6]: 6
Increased [6]: 42
Decreased [7]: 23
Increased [7]: 38
Decreased [8]: 1
Fold Enrichment (Obs/Exp) [8]: 3.5
Fraction of Impact (VIP Score) Explained (% of 119.7) [8]: 2%
Impact (Sum VIP Score) [8]: 2.0
Increased [8]: 0
Observed Hits in the Top 61 Metabolites [8]: 1
Linear Ratio (Tiglylglycine, 6-weeks): 1.302
VIP Score (Tiglylglycine, 6-weeks): 1.878
Z Abs (Tiglylglycine, 6-weeks): 1.310
Z Score (Tiglylglycine, 6-weeks): 1.310
Decreased [9]: 0
Fold Enrichment (Obs/Exp) [9]: 1.5
Fraction of Impact (VIP Score) Explained (% of 94.6) [9]: 2%
Impact (Sum VIP Score) [9]: 2.1
Increased [9]: 1
Observed Hits in the Top 48 Metabolites [9]: 1
Decreased [10]: 0
Fold Enrichment (Obs/Exp) [10]: 1.2
Fraction of Impact (VIP Score) Explained (% of 119.7) [10]: 1%
Impact (Sum VIP Score) [10]: 1.6
Increased [10]: 1
Observed Hits in the Top 61 Metabolites [10]: 1
Decreased [11]: 0
Fold Enrichment (Obs/Exp) [11]: 2.4
Fraction of Impact (VIP Score) Explained (% of 119.7) [11]: 2%
Impact (Sum VIP Score) [11]: 1.8
